Values quoted from earlier work in US20230024950A1, “METHODS FOR TREATING NEURODEGENERATIVE DISORDERS” (Alzheon, Inc., priority 2019, published 2023).

Key:
[1] = not given; remark: listed apart in the source
Aβ oligomers = Aβ oligomers (Homo sapiens, UniProt P05067); conditions: in vitro
Aβ oligomers, sequence (P05067 672-713 limits assumed): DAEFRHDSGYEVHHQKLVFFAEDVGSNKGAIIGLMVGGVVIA

| SMILES | plasma exposure compared with tramiprosate from the Phase 3 studies (Phase 1b) | pharmacokinetics and oral tolerability compared with tramiprosate (oral) | safety profile ([1]; Phase 3 trials and safety extension study, exposures of up to 2.5 years) | effect on MRI imaging: brain hippocampal volume (hippocampus atrophy) ([1]; Phase 3 trials, mild-to-moderate AD, dose-dependent) | benefit on cognition ([1]; subgroup analysis of APOE4/4 homozygotes, 100 mg BID or 150 mg BID over 78 weeks) | cognitive efficacy ([1]; subset of APOE4 carriers, especially APOE4/4 homozygotes) | formation of Aβ oligomers (Aβ oligomers) |
| --- | --- | --- | --- | --- | --- | --- | --- |
| CC(C)[C@H](N)C(=O)NCCCS(=O)(=O)O [ALZ-801, valyl-3-amino-1-propanesulfonic acid] | bioequivalence to plasma exposures to tramiprosate | improved pharmacokinetics and oral tolerability over tramiprosate | – | – | – | – | – |
| NCCCS(=O)(=O)O [Tramiprosate, 3-amino-1-propanesulfonic acid] | – | – | favorable safety profile | slowing the reduction of brain hippocampal volume | positive and clinically meaningful benefit on cognition | positive cognitive efficacy | inhibits the formation of Aβ oligomers in vitro |
